How the values were obtained:
[1] = tested on: U937; assay: Phagocytosis assay with Latex Beads-Rabbit IgG-FITC, U937 cells; type: cell-based; conditions: FIG. 6
Text: (§1) Phagocytosis is a very important physiological process which is characterized by the ingestion of foreign particles and killing of microorganisms by phagocytic leukocytes (monocytes, macrophages, granulocytes). The phagocytic leukocytes are part of a first line of natural defense against potential pathogens. Phagocytotic active of phagocytes can be measured using a phagocytosis assay. The phagocytosis assay uses fluorescently-opsonized latex beads which are contacted with phagocytic cells. After maintaining the beads in contact with the cell, fluorescent reading of cells is used to assess the degree of phagocytosis. Thus, the degree of phagocytosis from cells treated with different compounds can be compared quantifiably.
EDTA chelates Zinc. Phagocytotic immune cells were contacted with fluorescently-opsonized latex beads in the presence of ZnCl2 and EDTA to determine the effect addition of zinc-chelating EDTA changes the effects of zinc on the phagocytotic activity of phagocytotic immune cells.
(§2) 96-well plates were seeded with either phagocytic immune cells THP1 (cat #TIB202, ATCC) and U937 (cat #CRL-1593.2, ATCC) at 5×10^4 cells/well in 100 μl of RPMI-1640 medium containing 10 ng/ml phorbol myristic acid (PMA, Sigma) for 48 hr in a CO2 incubator at 37° C.
(§3) Medium was changed with 100 μl/ml of RPMI-1640 (Item #500290, Cayman). U937 cells were treated with ZnCl2 or ZnCl2 and EDTA. THP1 cells were treated with ZnO or ZnO plus EDTA. 10 μl of the Latex Beads-Rabbit IgG-FITC solution were added to each well. Plates were mixed gently and cells were incubated in a CO2 incubator at 37° C. for 24-48 hrs.
(§4) After incubation, plates were centrifuged for 5 minutes at 400×g at room temperature. Supernatant was carefully aspirated. 50 μl of Trypan blue solution was added to each well and plates were incubated for 1-2 mins at room temperature. Plates were centrifuged for 5 minutes at 400×g at room temperature. Supernatant was carefully aspirated. Fluorescent intensity was read using in plate reader at excitation 485/emission 535 nm.

[2] = tested on: THP1; assay: Phagocytosis assay with Latex Beads-Rabbit IgG-FITC, THP1 cells; type: cell-based; conditions: FIG. 7; for phagocytosis activity: versus EDTA control
Text: as §1, §2, §3, §4

O=C(O)CN(CCN(CC(=O)O)CC(=O)O)CC(=O)O [EDTA]
phagocytosis activity ([1]; EDTA alone versus untreated control): No difference in phagocytosis activity

[Cl-].[Cl-].[Zn+2] [ZnCl2]
phagocytosis activity ([1]; 12.5 μM, versus untreated control): more phagocytosis activity than untreated control cells | phagocytosis activity ([1]; 25 μM, versus untreated control): more phagocytosis activity than untreated control cells

[O]=[Zn] [ZnO, zinc oxide]
phagocytosis activity, comparison among the tested ZnO amounts ([2]; 6.25 μM compared with 12.5 μM and 25 μM): greatest increase | phagocytosis activity ([2]; 6.25 μM): more phagocytosis activity than EDTA control cells | phagocytosis activity ([2]; 12.5 μM): more phagocytosis activity than EDTA control cells | phagocytosis activity ([2]; 25 μM): more phagocytosis activity than EDTA control cells
